In publication PMC12448638, “The association between diet estrogenicity in exotic felids and poor spermatozoa quality in tigers (Panthera tigris)” (Biology of Reproduction, 2025):
Where two headings read alike, the source gives them in different places.

Key:
Experiment in all cases: 3xERE luciferase reporter activation, HEK293
[1] = test system: T1, ST ERβ; type: cell-based, Panthera tigris sumatrae; details: agonist, 24 h, 37 °C
T1 construct: gene ESR2; full-length ESR2 ORF (1653 bp, about 550 aa), codon-optimised, pcDNA3.1+, HEK293; residues S31, S40, V138, A147, E361, R433, E550

[2] = target: T2, ST ERα (Panthera tigris, UniProt Z9XQL7S1Y6); type: cell-based
T2 construct: full-length ESR1 ORF (1788 bp, about 595 aa), codon-optimised, pcDNA3.1+, HEK293; residues S53, P76, T496, S585
T2 sequence (Z9XQL7S1Y6 1-595): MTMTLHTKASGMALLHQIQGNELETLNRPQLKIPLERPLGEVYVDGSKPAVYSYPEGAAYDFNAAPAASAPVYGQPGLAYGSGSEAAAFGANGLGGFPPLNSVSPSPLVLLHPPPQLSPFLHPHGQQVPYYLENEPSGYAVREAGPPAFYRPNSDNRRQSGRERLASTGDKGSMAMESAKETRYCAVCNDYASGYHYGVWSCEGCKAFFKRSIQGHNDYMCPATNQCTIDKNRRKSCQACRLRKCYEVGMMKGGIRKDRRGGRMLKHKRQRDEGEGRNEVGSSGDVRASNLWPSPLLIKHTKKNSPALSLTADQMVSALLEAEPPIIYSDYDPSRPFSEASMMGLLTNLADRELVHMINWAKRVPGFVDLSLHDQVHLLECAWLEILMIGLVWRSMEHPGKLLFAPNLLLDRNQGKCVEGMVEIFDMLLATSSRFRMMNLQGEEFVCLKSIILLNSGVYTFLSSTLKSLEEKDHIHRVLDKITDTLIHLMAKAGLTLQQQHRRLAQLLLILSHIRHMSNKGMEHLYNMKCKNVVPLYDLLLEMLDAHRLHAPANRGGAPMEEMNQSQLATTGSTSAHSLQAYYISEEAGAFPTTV

[3] = test system: T3, SL ERα; type: cell-based, Panthera uncia; details: agonist, 24 h, 37 °C, corrected for constitutive activity
T3 construct: gene ESR1; full-length ESR1 ORF (1788 bp, about 595 aa), codon-optimised, pcDNA3.1+, HEK293; residues S53, S76, T496, T585

[4] = target: T4, SL ERβ (Panthera uncia, UniProt Z9GFH5XYU7); type: cell-based; details: agonist; 24 h, 37 °C; normalised to β-gal and maximal E2 activation; read-out: SL ER⍺ / EC50
T4 construct: full-length ESR2 ORF (1653 bp, about 550 aa), not codon-optimised, pcDNA3.1+, HEK293; residues S31, S40, I138, A147, G361, R433, Q550

[5] = normalised to β-gal and maximal E2 activation, read-out: ST ER⍺ / EC50
[6] = normalised to β-gal and maximal E2 activation, read-out: SL ER⍺ / EC50
[7] = normalised to β-gal, read-out: EC50

EC50 ([2]; read-out: ST ER⍺ / EC50)	EC50 [4]	EC50 ([2]; read-out: EC50)	Structure (SMILES)	EC50 [1, 5]	EC50 [3, 6]	EC50 [3, 7]	EC50 [1, 7]
			O=c1c(-c2ccc(O)cc2)coc2cc(O)ccc12 [DAID, daidzein]	793 nM			
131 nM	26 nM		O=c1oc2cc(O)ccc2c2oc3cc(O)ccc3c12 [COUM, coumestrol]	8.17 nM	41.3 nM		
1890 nM	291 nM		O=c1c(-c2ccc(O)cc2)coc2cc(O)cc(O)c12 [GEN, genistein]	22.3 nM	1670 nM		
		0.00611 nM	C[C@]12CC[C@@H]3c4ccc(O)cc4CC[C@H]3[C@@H]1CC[C@@H]2O [E2, 17β-estradiol]			0.00969 nM	0.041 nM
